Test results: paper PMC11882969 (Nature Communications, 2025)
Where “and” joins values, the source holds several entries; their conditions need not be identical. Equal entries are not always repeated.

Key:
[1] = Pharmacokinetics: plasma, brain, CSF
mice = assay: Catalepsy test, vertical wire mesh; assay type: in vivo, mouse
Method: Thirty min after an i.p. injection of the compounds, mice were placed on a vertical wire mesh and the latency to move all four paws was recorded.

CB1 (rCB1) [2] = molecular target: T1, CB1 (rCB1) (Rattus norvegicus, UniProt P20272); assay: Radioligand competition binding, [3H]-CP-55,940, rat brain membranes
T1 sequence (P20272 whole entry): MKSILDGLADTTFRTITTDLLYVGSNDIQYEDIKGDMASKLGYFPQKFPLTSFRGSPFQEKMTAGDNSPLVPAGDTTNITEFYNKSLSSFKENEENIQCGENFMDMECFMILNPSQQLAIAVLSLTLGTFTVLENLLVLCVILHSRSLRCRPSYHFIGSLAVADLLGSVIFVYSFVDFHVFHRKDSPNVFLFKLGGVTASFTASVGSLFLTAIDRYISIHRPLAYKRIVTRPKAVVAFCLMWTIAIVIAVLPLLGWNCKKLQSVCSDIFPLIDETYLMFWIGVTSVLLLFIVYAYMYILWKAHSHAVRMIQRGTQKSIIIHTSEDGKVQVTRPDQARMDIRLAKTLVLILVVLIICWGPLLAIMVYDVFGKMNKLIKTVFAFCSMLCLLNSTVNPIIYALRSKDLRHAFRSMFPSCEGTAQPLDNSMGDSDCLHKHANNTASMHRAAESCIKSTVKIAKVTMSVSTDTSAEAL

CB1 (rCB1) [3] = molecular target: T1, CB1 (rCB1); assay: Single-point radioligand displacement screen; assay type: binding; conditions: 10 µM, 1 µM or 300 nM by cell colour (not visible)
hCB1 = hCB1 (Homo sapiens, UniProt P21554); assay: bioSensAll ebBRET signaling profiling, hCB1; assay type: cell-based; design: host or cells: HEK293SL cells, transient PEI transfection; conditions: for Barr2+GRK2 hCB1 response: Barr2+GRK2 biosensor; for Gi1 hCB1 / GoB hCB1: single replicate values, FigS6a
Sequence of hCB1 (P21554 whole entry): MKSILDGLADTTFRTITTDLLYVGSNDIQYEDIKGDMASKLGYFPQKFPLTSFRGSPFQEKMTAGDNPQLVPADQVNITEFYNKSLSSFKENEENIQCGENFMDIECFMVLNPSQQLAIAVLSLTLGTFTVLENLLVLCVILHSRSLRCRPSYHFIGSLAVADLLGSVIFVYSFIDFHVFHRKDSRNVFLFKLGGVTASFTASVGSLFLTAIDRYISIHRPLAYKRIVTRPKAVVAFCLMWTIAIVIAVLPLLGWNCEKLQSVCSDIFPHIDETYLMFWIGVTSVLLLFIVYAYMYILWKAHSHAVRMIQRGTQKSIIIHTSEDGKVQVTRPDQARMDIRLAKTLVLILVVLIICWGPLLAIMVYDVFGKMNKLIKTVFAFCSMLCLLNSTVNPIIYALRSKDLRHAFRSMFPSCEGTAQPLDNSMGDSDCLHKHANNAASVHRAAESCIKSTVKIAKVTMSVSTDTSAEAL

CCCCCCC(C)(C)c1ccc([C@@H]2C[C@H](O)CC[C@H]2CCCO)c(O)c1 [CP55940]
Brain, Mean ([1]; Time 1 min): 0
CSF, Mean ([1]; Time 1 min): 0
Plasma, Mean ([1]; Time 1 min): 0
Brain, Mean ([1]; Time 5 min): 0
CSF, Mean ([1]; Time 5 min): 0
Plasma, Mean ([1]; Time 5 min): 21.5
Brain, Mean ([1]; Time 15 min): 11.5
CSF, Mean ([1]; Time 15 min): 0
Plasma, Mean ([1]; Time 15 min): 47.5
Brain, Mean ([1]; Time 30 min): 19.2
CSF, Mean ([1]; Time 30 min): 0
Plasma, Mean ([1]; Time 30 min): 48.4
Brain, Mean ([1]; Time 60 min): 17.1
CSF, Mean ([1]; Time 60 min): 0
Plasma, Mean ([1]; Time 60 min): 26.7
Brain, Mean ([1]; Time 120 min): 11.9
CSF, Mean ([1]; Time 120 min): 0
Plasma, Mean ([1]; Time 120 min): 10.6
Brain, Mean ([1]; Time 240 min): 3.09
CSF, Mean ([1]; Time 240 min): 0
Plasma, Mean ([1]; Time 240 min): 2.6
Brain, Mean ([1]; Time 360 min): 0
CSF, Mean ([1]; Time 360 min): 0
Plasma, Mean ([1]; Time 360 min): 0
Brain, Mean ([1]; Time 480 min): 0
CSF, Mean ([1]; Time 480 min): 0
Plasma, Mean ([1]; Time 480 min): 0
Brain, Mean ([1]; Time […]): 0
CSF, Mean ([1]; Time […]): 0
Plasma, Mean ([1]; Time […]): 0

O=C(CCCN1CCC(O)(c2ccc(Cl)cc2)CC1)c1ccc(F)cc1 [haloperidol, reference compound]
catalepsy (Figure6c), individual animals (mice; 1 mg/kg dose): 21 and 17 and 11.5 and 18 and 14
catalepsy, latency to move all four paws (mice; i.p., ‘1350 at 0.2 or 0.5 mg/kg, haloperidol 1.0 mg/kg): induced catalepsy

Brc1cc2c(cc1Cc1noc(-c3cnn(CC4CC4)c3)n1)OCO2 [‘5424]
Ki (CB1 (rCB1) [2]): 0.876 µM
% 1H-CP-55,940 displacement (mean) from single point screen (CB1 (rCB1) [3]): 80.66%
Barr2+GRK2 hCB1 response (hCB1; Log [Compound] (M) -4.22186): 13.3846
Barr2+GRK2 hCB1 response (hCB1; Log [Compound] (M) -4.63927): -34.7954
Barr2+GRK2 hCB1 response (hCB1; Log [Compound] (M) -5.05788): -53.3016
Barr2+GRK2 hCB1 response (hCB1; Log [Compound] (M) -5.47381): -24.9041
Barr2+GRK2 hCB1 response (hCB1; Log [Compound] (M) -5.89285): -50.1109
Barr2+GRK2 hCB1 response (hCB1; Log [Compound] (M) -6.31878): -50.749
Barr2+GRK2 hCB1 response (hCB1; Log [Compound] (M) -6.72585): -48.8346
Barr2+GRK2 hCB1 response (hCB1; Log [Compound] (M) -7.14267): -52.6635
Barr2+GRK2 hCB1 response (hCB1; Log [Compound] (M) -7.55284): -51.0681
Barr2+GRK2 hCB1 response (hCB1; Log [Compound] (M) -8): -33.5191
Barr2+GRK2 hCB1 response (hCB1; Log [Compound] (M) -8.22186): -13.7366
Barr2+GRK2 hCB1 response (hCB1; Log [Compound] (M) -8.39794): -34.7954
Barr2+GRK2 hCB1 response (hCB1; Log [Compound] (M) -8.68787): -65.1073
Barr2+GRK2 hCB1 response (hCB1; Log [Compound] (M) -9.15521): -41.4959
Barr2+GRK2 hCB1 response (hCB1; Log [Compound] (M) -9.61989): -48.1965
Barr2+GRK2 hCB1 response (hCB1; Log [Compound] (M) -10.0969): -56.8114
Barr2+GRK2 hCB1 response (hCB1; Log [Compound] (M) -10.5529): -48.8346
Barr2+GRK2 hCB1 response (hCB1; Log [Compound] (M) -11.0177): -49.7918
Barr2+GRK2 hCB1 response (hCB1; Log [Compound] (M) -11.4949): -48.1965
Barr2+GRK2 hCB1 response (hCB1; Log [Compound] (M) -11.9208): -46.9202
Barr2+GRK2 hCB1 response (hCB1; Log [Compound] (M) -12.3979): -47.8774
Barr2+GRK2 hCB1 response (hCB1; Log [Compound] (M) -12.8861): -20.4371
Barr2+GRK2 hCB1 response (hCB1; Log [Compound] (M) -13.3979): -11.8221
Gi1 hCB1 (hCB1; Log [Compound] (M) -4.22186): -12.5553
GoB hCB1 (hCB1; Log [Compound] (M) -4.22186): -17.0204
Gi1 hCB1 (hCB1; Log [Compound] (M) -4.63927): -11.9852
GoB hCB1 (hCB1; Log [Compound] (M) -4.63927): -18.7739
Gi1 hCB1 (hCB1; Log [Compound] (M) -5.05788): -14.0757
GoB hCB1 (hCB1; Log [Compound] (M) -5.05788): -12.8536
Gi1 hCB1 (hCB1; Log [Compound] (M) -5.47381): -12.6978
GoB hCB1 (hCB1; Log [Compound] (M) -5.47381): -15.4926
Gi1 hCB1 (hCB1; Log [Compound] (M) -5.89285): -12.001
GoB hCB1 (hCB1; Log [Compound] (M) -5.89285): -16.569
Gi1 hCB1 (hCB1; Log [Compound] (M) -6.31878): -13.0779
GoB hCB1 (hCB1; Log [Compound] (M) -6.31878): -15.128
Gi1 hCB1 (hCB1; Log [Compound] (M) -6.72585): -11.811
GoB hCB1 (hCB1; Log [Compound] (M) -6.72585): -16.3259
Gi1 hCB1 (hCB1; Log [Compound] (M) -7.14267): -11.1775
GoB hCB1 (hCB1; Log [Compound] (M) -7.14267): -15.4926
Gi1 hCB1 (hCB1; Log [Compound] (M) -7.55284): -10.8449
GoB hCB1 (hCB1; Log [Compound] (M) -7.55284): -14.0342
Gi1 hCB1 (hCB1; Log [Compound] (M) -8): -8.707
GoB hCB1 (hCB1; Log [Compound] (M) -8): -12.871
Gi1 hCB1 (hCB1; Log [Compound] (M) -8.22186): -5.46
GoB hCB1 (hCB1; Log [Compound] (M) -8.22186): -9.781
Gi1 hCB1 (hCB1; Log [Compound] (M) -8.39794): -6.126
GoB hCB1 (hCB1; Log [Compound] (M) -8.39794): -10.3709
Gi1 hCB1 (hCB1; Log [Compound] (M) -8.68787): -3.497
GoB hCB1 (hCB1; Log [Compound] (M) -8.68787): -5.77
Gi1 hCB1 (hCB1; Log [Compound] (M) -9.15521): -3.212
GoB hCB1 (hCB1; Log [Compound] (M) -9.15521): -5.544
Gi1 hCB1 (hCB1; Log [Compound] (M) -9.61989): -0.3926
GoB hCB1 (hCB1; Log [Compound] (M) -9.61989): -4.867
Gi1 hCB1 (hCB1; Log [Compound] (M) -10.0969): -1.39
GoB hCB1 (hCB1; Log [Compound] (M) -10.0969): -5.128
Gi1 hCB1 (hCB1; Log [Compound] (M) -10.5529): 0.9853
GoB hCB1 (hCB1; Log [Compound] (M) -10.5529): -3.287
Gi1 hCB1 (hCB1; Log [Compound] (M) -11.0177): -1.058
GoB hCB1 (hCB1; Log [Compound] (M) -11.0177): -4.781
Gi1 hCB1 (hCB1; Log [Compound] (M) -11.4949): -2.008
GoB hCB1 (hCB1; Log [Compound] (M) -11.4949): -5.51
Gi1 hCB1 (hCB1; Log [Compound] (M) -11.9208): -4.653
GoB hCB1 (hCB1; Log [Compound] (M) -11.9208): -6.586
Gi1 hCB1 (hCB1; Log [Compound] (M) -12.3979): -2.024
GoB hCB1 (hCB1; Log [Compound] (M) -12.3979): -6.3778
Gi1 hCB1 (hCB1; Log [Compound] (M) -12.8861): -1.992
GoB hCB1 (hCB1; Log [Compound] (M) -12.8861): -4.242
Gi1 hCB1 (hCB1; Log [Compound] (M) -13): 0.06671
GoB hCB1 (hCB1; Log [Compound] (M) -13): -4.798
Gi1 hCB1 (hCB1; Log [Compound] (M) cell empty): -0.7726
GoB hCB1 (hCB1; Log [Compound] (M) cell empty): -5.458
